Read-outs that look alike come from different tables or passages of the source.
Target: panel of 255 wild-type kinases (Homo sapiens, UniProt Q92918)
Test: Kinase panel profiling at 1 µmol/L (MSA or IMAP), percentage inhibition
Type: biochemical
Details: read-out: %-inhibition at 1 µmol/L, HPK1
[1] = kinase HPK1, 1 µmol/L single concentration

SMILES	inhibition at 1 µM [1]	inhibition at 1 µM
CCN1CCN(c2ccc(Nc3cc(N(C)C(=O)Nc4c(Cl)c(OC)cc(OC)c4Cl)ncn3)cc2)CC1 [infigratinib]	65%	
COc1ccc(CN2C3CC2CN(c2ccc(-c4cc(OCC(C)(C)O)cn5ncc(C#N)c45)cn2)C3)cn1 [selpercatinib]	8.44%	
Cn1cnc2c(F)c(Nc3ccc(Br)cc3Cl)c(C(=O)NOCCO)cc21 [selumetinib]	9.49%	
CCN1C(=O)N(c2c(F)c(OC)cc(OC)c2F)Cc2cnc3[nH]c(CN4CCOCC4)cc3c21 [pemigatinib]	21%	
Cn1cc(-c2cc3c(N4CCN(c5ncc([C@@](C)(N)c6ccc(F)cc6)cn5)CC4)ncnn3c2)cn1 [avapritinib]	15%	
CNC(=O)c1ccc(-c2cnc3ncc(Cc4ccc5ncccc5c4)n3n2)cc1F [capmatinib]		0.392%
